This note sets out measurements from patent publication US10335374B2, “Tablet composition for anti-tuberculosis antibiotics” (priority 2014, dated 2019).

SMILES strings stand for the structures. Values after ≈ are worked out from the molar mass of the structure shown.

Assay in all cases: microbe, parasite or virus in culture
Common to all, as to format: cell-based, M. tuberculosis

Experiment [1] concerns INH-R1 (isoniazid resistant).
The test system of experiment [2] is INH-R2 (isoniazid resistant).
Experiment [3] deals with isoniazid-resistant strain. The note with it: Mycobacterium tuberculosis.
Experiment [4] has as its system ofloxacin-resistant strain. As to conditions: Mycobacterium tuberculosis.
The test system of experiment [5] is rifampin-resistant strain. The note with it: Mycobacterium tuberculosis.
In experiment [6] the test system is RIF-R1 (rifampicin resistant). As to conditions: Mycobacterium tuberculosis.
Experiment [7] has as its system FQ-R1 (fluoroquinolone resistant). As to conditions: Mycobacterium tuberculosis.
For experiment [8], the system named is RIF-R2 (rifampicin resistant). As to conditions: Mycobacterium tuberculosis.

For `NNC(=O)c1ccncc1` [Isoniazid (INH), isoniazid], the MIC was above 200 µM in experiment [1] (Mycobacterium tuberculosis); above 200 µM in experiment [1] (Resistant Isolate INH-R1, isoniazid-sucrose series); above 200 µM in experiment [2] (Mycobacterium tuberculosis); above 200 µM in experiment [2] (Resistant Isolate INH-R2, isoniazid-sucrose series).

For the molecule `NCC[C@H](O)C(=O)N[C@@H]1C[C@H](N)[C@@H](O[C@H]2O[C@H](CN)[C@@H](O)[C@H](O)[C@H]2O)[C@H](O)[C@H]1O[C@H]1O[C@H](CO)[C@@H](O)[C@H](N)[C@H]1O` [amikacin], the values for the MIC in experiment [3], in experiment [4] and in experiment [5] were 2.05 µM (≈ 1.2 µg/mL), 0.256 µM (≈ 0.15 µg/mL) and 0.256 µM (≈ 0.15 µg/mL), respectively.

For `CO[C@H]1/C=C/O[C@@]2(C)Oc3c(C)c(O)c4c(O)c(c(/C=N/N5CCN(C)CC5)c(O)c4c3C2=O)NC(=O)/C(C)=C\C=C\[C@H](C)[C@H](O)[C@@H](C)[C@@H](O)[C@@H](C)[C@H](OC(C)=O)[C@@H]1C` [rifampicin], the MIC in experiment [1] (Mycobacterium tuberculosis) is 0.02 µM (≈ 0.0165 µg/mL); in experiment [2] (Mycobacterium tuberculosis), 0.0075 µM (≈ 0.00617 µg/mL); in experiment [6], 12.4 µM (≈ 10.2 µg/mL); in experiment [7], 0.017 µM (≈ 0.014 µg/mL); in experiment [8] it was above 200 µM.
